The record followed here is patent publication US12612409B2, “Pyrrolopyrimidines as CFTR potentiators” (Cystic Fibrosis Foundation, priority 2016, dated 2026).

By EC50 is commonly meant the concentration giving half of the maximal effect.

For assay [1], the target named is T1, recombinant F508del V470 CFTR in Fischer rat thyroid (FRT) cells (Homo sapiens, UniProt P13569, DEL508-508).
T1 construct: expressed in transfected cells
Kind of assay: FRT ion flux assay of F508del CFTR potentiation. It is filed as cell-based. The settings on record: FRT cells expressing F508del V470 CFTR, forskolin 20 uM, 27° C. pre-incubation. As for the experimental part:
FRT Ion Flux Assay of F508del CFTR Potentiation
Fischer rat thyroid (FRT) cell lines stably expressing recombinant F508del V470 CFTR and halide-sensitive yellow fluorescent protein (Pedemonte et al., J. Clin. Invest. 115(9) 2564-71 (2005)) were seeded at 25,000 cells/well in 50 uL/well of culture medium into black-walled, clear bottom tissue-culture-treated 384-well plates (Corning, cat. no. 3712). After one day, the cells were pre-incubated at 27° C./5% CO2 for 16-24 hours. The cells were then washed with dPBS and treated with forskolin (20 uM) and test compound for 30 mi by addition of 20 uL of compound dilution buffer (dPBS containing forskolin and test compound). Plates were loaded into FLIPR384 fluorescence imaging plate reader (Molecular Devices). After an initial fluorescence reading, iodide buffer (25 uL) (composition (in mM): 137 NaI, 1.5 K2PO4, 8.1 NaH2PO4, 2.7 KCl, 0.5 MgCl2, 1 CaCl2) was added and a second fluorescence reading was made after approximately 21 seconds. Data treatment involved division of the second fluorescence reading by the initial fluorescence reading, then scaling of the resulting normalized endpoint fluorescence with respect to the responses for DMSO (0%) and a positive control potentiator (100%).

Assay [2] deals with T2, CFTR in F508del/F508del primary CF hBE cells (Homo sapiens, UniProt P13569, DEL508-508).
T2 construct: Primary cystic fibrosis human bronchial epithelial (CF hBE) cells were expanded and cultured; endogenous in cells; host or cells: primary CF human bronchial epithelial cells, genotype F508del/F508del
Kind of assay: Ussing chamber electrophysiology assay of CFTR potentiation in F508del/F508del CF bronchial epithelial cells (27° C.). It is filed as cell-based. The source says: • SHELXTL, Version 5.1, Bruker AXS, 1997. • PLATON, A. L. Spek, J. Appl. Cryst. 2003, 36, 7-13. • MERCURY, C. F. Macrae, P. R. Edington, P. McCabe, E. Pidcock, G. P. Shields, R. Taylor, M. Towler and J. van de Streek, J. Appl. Cryst. 39, 453-457, 2006. • OLEX2, Dolomanov, O. V.; Bourhis, L. J.; Gildea, R. J.; Howard, J. A. K.; Puschmann, H., (2009). J. Appl. Cryst., 42, 339-341. • R. W. W. Hooft et al. J. Appl. Cryst. (2008). 41. 96-103. • H. D. Flack, Acta Cryst. 1983, A39, 867-881. Using Chamber Electrophysiology Assay of CFTR Potentiation in CF Bronchial Epithelial Cells
Primary cystic fibrosis human bronchial epithelial (CF hBE) cells were expanded and cultured according to published methods (Neuberger et al., Ch. 4 of Cystic Fibrosis, Methods in Molecular Biology vol. 741, pp. 39-54 (2011)). Well-differentiated cells (>30 days at air/liquid interface) on Snapwell filters (Corning Costar, cat. no. 3801) were mounted in Ussing chambers (Physiologic Instruments, Inc., San Diego, CA). […] HEPES buffered physiological saline (composition (in mM): 137 NaCl, 4 KCl, 1 MgCl2, 1.8 CaCl2), 10 HEPES Na) was used in both apical and basolateral chambers. Chambers were bubbled with air to promote mixing and the voltage was clamped to zero. Amiloride (30 uM), forskolin (10 uM), test compound (4 increasing concentrations), and CFTRinh-172 (20 uM) were added sequentially with 20-25 minutes between additions. Short-circuit currents were acquired and analyzed using LabScribe2. Test compound responses were scaled relative to responses for DMSO (0%) and the maximal response of a positive control potentiator (100%).

T1 sequence (P13569 with tags, fused parts or gaps DEL508-508): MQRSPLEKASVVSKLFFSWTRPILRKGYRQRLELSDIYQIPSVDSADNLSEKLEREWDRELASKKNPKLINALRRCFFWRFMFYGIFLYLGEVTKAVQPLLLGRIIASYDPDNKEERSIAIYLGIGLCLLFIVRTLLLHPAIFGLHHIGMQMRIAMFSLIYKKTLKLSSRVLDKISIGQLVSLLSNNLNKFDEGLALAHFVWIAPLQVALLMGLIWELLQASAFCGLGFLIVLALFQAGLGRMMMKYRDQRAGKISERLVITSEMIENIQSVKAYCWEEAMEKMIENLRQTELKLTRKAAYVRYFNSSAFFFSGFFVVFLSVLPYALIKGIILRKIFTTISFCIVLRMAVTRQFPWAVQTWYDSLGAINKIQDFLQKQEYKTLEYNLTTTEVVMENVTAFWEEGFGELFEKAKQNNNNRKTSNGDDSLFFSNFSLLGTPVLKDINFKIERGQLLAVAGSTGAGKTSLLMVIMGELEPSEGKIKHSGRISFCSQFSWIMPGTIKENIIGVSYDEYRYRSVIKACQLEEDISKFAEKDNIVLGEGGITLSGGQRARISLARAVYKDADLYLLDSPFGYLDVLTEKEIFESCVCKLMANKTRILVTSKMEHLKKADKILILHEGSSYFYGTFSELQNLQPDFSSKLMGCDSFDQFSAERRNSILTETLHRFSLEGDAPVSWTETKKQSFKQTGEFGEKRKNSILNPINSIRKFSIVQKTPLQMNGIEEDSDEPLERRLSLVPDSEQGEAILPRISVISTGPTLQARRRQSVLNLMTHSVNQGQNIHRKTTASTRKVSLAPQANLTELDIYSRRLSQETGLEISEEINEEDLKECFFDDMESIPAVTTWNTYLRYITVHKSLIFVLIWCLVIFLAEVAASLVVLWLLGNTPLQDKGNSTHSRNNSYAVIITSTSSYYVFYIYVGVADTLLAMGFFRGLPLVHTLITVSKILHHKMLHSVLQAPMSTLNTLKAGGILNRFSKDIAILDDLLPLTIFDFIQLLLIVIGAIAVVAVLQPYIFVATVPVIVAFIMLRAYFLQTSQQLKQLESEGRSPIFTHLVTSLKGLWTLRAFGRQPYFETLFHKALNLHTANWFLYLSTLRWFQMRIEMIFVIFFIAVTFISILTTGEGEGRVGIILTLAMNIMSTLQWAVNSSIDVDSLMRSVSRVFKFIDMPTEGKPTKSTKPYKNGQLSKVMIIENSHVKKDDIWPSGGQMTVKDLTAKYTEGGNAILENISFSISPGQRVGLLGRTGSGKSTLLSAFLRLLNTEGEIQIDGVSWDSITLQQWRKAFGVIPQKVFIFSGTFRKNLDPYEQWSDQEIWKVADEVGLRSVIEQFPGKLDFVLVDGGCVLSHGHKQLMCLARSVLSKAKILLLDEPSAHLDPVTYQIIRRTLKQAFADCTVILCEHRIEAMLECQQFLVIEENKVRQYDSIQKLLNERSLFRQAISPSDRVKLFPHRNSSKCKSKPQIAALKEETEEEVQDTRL
T2 sequence (P13569 with tags, fused parts or gaps DEL508-508): as above

`CC(c1cnn(-c2ccccc2F)c1)n1c(C#N)c(-c2cnc(C(F)F)nc2)c2c(N)ncnc21` (single isomer, unassigned) [Example 1, 4-Amino-5-[2-(difluoromethyl)pyrimidin-5-yl]-7-{1-[1-(2-fluorophenyl)-1H-pyrazol-4-yl]ethyl}-7H-pyrrolo[2,3-d]pyrimidine-6-carbonitrile]: the concentration giving a half-maximal response (EC50) in assay [1] was determined as 0.55 nM; in assay [2] it was 1.66 nM.

As to `CC(c1cnn(-c2ccccc2F)c1)n1c(C#N)c(-c2cnc(C(F)F)nc2)c2c(N)ncnc21` (single isomer, unassigned) [Example 2, 4-Amino-5-[2-(difluoromethyl)pyrimidin-5-yl]-7-{1-[1-(2-fluorophenyl)-1H-pyrazol-4-yl]ethyl}-7H-pyrrolo[2,3-d]pyrimidine-6-carbonitrile], the EC50 worked out at 7.51 nM in assay [1] and 8.77 nM in assay [2].

For `CCC(c1cnn(-c2ccccc2F)c1)n1c(C#N)c(-c2cnc(C(F)(F)F)nc2)c2c(N)ncnc21` (single isomer, unassigned) [Example 3, 4-Amino-7-{1-[1-(2-fluorophenyl)-1H-pyrazol-4-yl]propyl}-5-[2-(trifluoromethyl)pyrimidin-5-yl]-7H-pyrrolo[2,3-d] pyrimidine-6-carbonitrile], the EC50 stood at 9.17 nM in assay [1] and 3.36 nM in assay [2].

`CCC(c1cnn(-c2ccccc2F)c1)n1c(C#N)c(-c2cnc(C(F)(F)F)nc2)c2c(N)ncnc21` (single isomer, unassigned) [Example 4, 4-Amino-7-{1-[1-(2-fluorophenyl)-1H-pyrazol-4-yl]propyl}-5-[2-(trifluoromethyl)pyrimidin-5-yl]-7H-pyrrolo[2,3-d] pyrimidine-6-carbonitrile]: the EC50 in assay [1] came to 0.61 nM; in assay [2] it was 0.56 nM.

As to `CC(c1cnn(-c2ccccc2F)c1)n1c(C#N)c(-c2cnc(C(F)(F)F)nc2)c2c(N)ncnc21` (single isomer, unassigned) [Example 5, 4-Amino-7-(1-(1-(2-fluorophenyl)-1H-pyrazol-4-yl)ethyl)-5-(2-(trifluoromethyl)pyrimidin-5-yl)-7H-pyrrolo[2,3-d] pyrimidine-6-carbonitrile], the EC50 amounted to 7.69 nM in assay [1] and 7.73 nM in assay [2].

For the compound `CC(c1cnn(-c2ccccc2F)c1)n1c(C#N)c(-c2cnc(C(F)(F)F)nc2)c2c(N)ncnc21` (single isomer, unassigned) [Example 6, 4-Amino-7-(1-(1-(2-fluorophenyl)-1H-pyrazol-4-yl)ethyl)-5-(2-(trifluoromethyl)pyrimidin-5-yl)-7H-pyrrolo[2,3-d] pyrimidine-6-carbonitrile], the EC50 is 1.01 nM in assay [1] and 1.19 nM in assay [2].

For the compound `CC(c1cc(-c2ccccc2F)no1)n1cc(-c2ccc3c(c2)OCCO3)c2c(N)ncnc21` (centres unmarked) [Example 102, 5-(2,3-Dihydro-1,4-benzodioxin-6-yl)-7-{1-[3-(2-fluorophenyl)-1,2-oxazol-5-yl]ethyl}-7H-pyrrolo[2,3-d]pyrimidin-4-amine], the EC50 in assay [1] is 322 nM.

For the compound `CC(c1cc(-c2ccccc2F)no1)n1cc(-c2ccnc3[nH]ccc23)c2c(N)ncnc21` (centres unmarked) [Example 103, 7-{1-[3-(2-Fluorophenyl)-1,2-oxazol-5-yl]ethyl}-5-(1H-pyrrolo[2,3-b]pyridin-4-yl)-7H-pyrrolo[2,3-d]pyrimidin-4-amine], the EC50 in assay [1] stood at 5150 nM.

`CC(c1cc(-c2ccccc2F)no1)n1cc(-c2ccc3nonc3c2)c2c(N)ncnc21` (centres unmarked) [Example 104, 5-(2,1,3-Benzoxadiazol-5-yl)-7-{1-[3-(2-fluorophenyl)-1,2-oxazol-5-yl]ethyl}-7H-pyrrolo[2,3-d]pyrimidin-4-amine]: the EC50 in assay [1] came to 331 nM.

In the case of `CC(c1cc(-c2ccccc2F)no1)n1cc(-c2cc3cnccc3s2)c2c(N)ncnc21` (centres unmarked) [Example 106, 7-{1-[3-(2-Fluorophenyl)-1,2-oxazol-5-yl]ethyl}-5-(thieno[3,2-c]pyridin-2-yl)-7H-pyrrolo[2,3-d]pyrimidin-4-amine], in assay [1], the EC50 was determined as 2080 nM.

`CCC(c1cn(-c2ccc(F)c(F)c2)nn1)n1cc(-c2cncnc2OC)c2c(N)ncnc21` (centres unmarked) [Example 245, 7-{1-[1-(3,4-Difluorophenyl)-1H-1,2,3-triazol-4-yl]propyl}-5-[4-methoxypyrimidin-5-yl]-7H-pyrrolo[2,3-d] pyrimidin-4-amine]: the EC50 in assay [1] stood at 42.4 nM.

On to `CCC(c1cn(-c2ccc(F)cc2F)nn1)n1cc(-c2cncnc2OC)c2c(N)ncnc21` (centres unmarked) [Example 246, 7-{1-[1-(2,4-Difluorophenyl)-1H-1,2,3-triazol-4-yl]propyl}-5-[4-methoxypyrimidin-5-yl]-7H-pyrrolo[2,3-d] pyrimidin-4-amine], for which, in assay [1], the EC50 amounted to 17.2 nM.

For the compound `CC(c1cn(-c2ccccc2F)nn1)n1cc(C2COC2)c2c(N)ncnc21` (centres unmarked) [Example 250, 7-{1-[1-(2-Fluorophenyl)-1H-1,2,3-triazol-4-yl]ethyl}-5-(oxetan-3-yl)-7H-pyrrolo[2,3-d] pyrimidin-4-amine], the EC50 in assay [1] amounted to 2200 nM.

With `CCC(c1cn(-c2ccccc2F)nn1)n1cc(-c2nccnc2OC)c2c(N)ncnc21` (centres unmarked) [Example 251, 7-{1-[1-(2-Fluorophenyl)-1H-1,2,3-triazol-4-yl]propyl}-5-(3-methoxypyrazin-2-yl)-7H-pyrrolo [2,3-d]pyrimidin-4-amine], the 50% effective concentration (EC50) in assay [1] was 5.41 nM.

Regarding `Nc1ncnc2c1c(-c1ccc(Cl)cc1)cn2Cc1cn(-c2ccccc2F)cn1` [Example 265, 5-(4-Chlorophenyl)-7-{[1-(2-fluorophenyl)-1H-imidazol-4-yl]methyl}-7H-pyrrolo[2,3-d]pyrimidin-4-amine], the EC50 in assay [1] came out at 3880 nM.

Turning to `Nc1ncnc2c1c(-c1ccc(Cl)cc1)cn2Cc1cn(C2CCCC2)nn1` [Example 281, 5-(4-Chlorophenyl)-7-[(1-cyclopentyl-1H-1,2,3-triazol-4-yl)methyl]-7H-pyrrolo[2,3-d]pyrimidin-4-amine], in assay [1], the EC50 turned out to be 170 nM.

Consider `Nc1ncnc2c1c(-c1ccc(Cl)cc1)cn2Cc1nnc(-c2ccccc2)[nH]1` [Example 284, 5-(4-Chlorophenyl)-7-[(5-phenyl-4H-1,2,4-triazol-3-yl)methyl]-7H-pyrrolo[2,3-d]pyrimidin-4-amine], for which, in assay [2], the EC50 is 551 nM.

Turning to `Nc1ncnc2c1c(C1CN(C(=O)C3CC3)C1)cn2Cc1cn(-c2ccccc2F)nn1` [Example 292, [3-(4-Amino-7-{[1-(2-fluorophenyl)-1H-1,2,3-triazol-4-yl]methyl}-7H-pyrrolo[2,3-d]pyrimidin-5-yl)azetidin-1-yl](cyclopropyl) methanone], in assay [1], the EC50 was determined as 3210 nM.

Consider `Nc1ncnc2c1c(C1CN(S(=O)(=O)CC3CC3)C1)cn2Cc1cn(-c2ccccc2F)nn1` [Example 293, 5-{1-[(Cyclopropylmethyl)sulfonyl]azetidin-3-yl}-7-{[1-(2-fluorophenyl)-1H-1,2,3-triazol-4-yl]methyl}-7H-pyrrolo[2,3-d]pyrimidin-4-amine], for which the EC50 in assay [1] stood at 1890 nM.

Consider `Nc1ncnc2c1c(-c1ccc(Cl)cc1)c(Br)n2Cc1cn(-c2cccc(F)c2)nn1` [Example 319, 6-Bromo-5-(4-chlorophenyl)-7-{[1-(3-fluorophenyl)-1H-1,2,3-triazol-4-yl]methyl}-7H-pyrrolo[2,3-d]pyrimidin-4-amine], for which the EC50 in assay [1] was 194 nM.
